Results published in US6713629B2 (dated 2004).

melting point: 95 to 96 °C
Structure (SMILES): CC1(c2ccccc2)SC(=S)N(Nc2ccccc2)C1=NOC(=O)Nc1ccc(Cl)c(Cl)c1 (stereo not shown)
